Measured values reported in patent publication US9199946B2, “Pyrimidinone carboxamide inhibitors of endothelial lipase” (BRISTOL-MYERS SQUIBB COMPANY, priority 2012, dated 2015).

Target: T1, Endothelial lipase (EL) (Homo sapiens, UniProt Q9Y5X9)
T1 construct: HT-1080 cells, which were transformed by RAGE technology (Athersys) to overexpress endogenous EL; endogenous in cells; conditioned medium used as the enzyme source
T1 sequence (Q9Y5X9 21-500): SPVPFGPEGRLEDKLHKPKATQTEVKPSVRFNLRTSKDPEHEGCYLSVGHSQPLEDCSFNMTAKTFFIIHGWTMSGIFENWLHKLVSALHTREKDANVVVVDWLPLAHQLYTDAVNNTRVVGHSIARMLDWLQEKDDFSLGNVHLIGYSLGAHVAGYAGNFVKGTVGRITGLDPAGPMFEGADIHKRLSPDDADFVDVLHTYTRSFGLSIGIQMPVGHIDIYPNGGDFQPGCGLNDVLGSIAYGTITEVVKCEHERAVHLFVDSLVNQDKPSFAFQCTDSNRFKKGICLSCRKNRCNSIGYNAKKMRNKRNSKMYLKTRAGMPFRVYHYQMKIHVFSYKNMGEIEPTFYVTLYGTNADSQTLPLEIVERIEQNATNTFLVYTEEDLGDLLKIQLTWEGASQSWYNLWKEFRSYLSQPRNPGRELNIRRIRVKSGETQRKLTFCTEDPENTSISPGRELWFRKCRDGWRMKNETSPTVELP
Test: Endothelial lipase (EL) enzymatic assay with fluorescent substrate A10070 in DMPG vesicles
Assay type: biochemical
Conditions: conditioned media from HT-1080 cells overexpressing endogenous EL; 20 min preincubation at 37° C.; read-out: EL IC50
Description: Endothelial lipase activity was measured using a fluorescent substrate, A10070, (Invitrogen, CA) doped into an artificial vesicle containing DMPG (Avanti Polar Lipids) as the excipient. Vesicles were prepared by combining 285 μL of 1 mM DMPG in a 1:1 mixture of MeOH and CHCl3 with 15 μL of 1 mM A10070 in a 1:1 mixture of MeOH and CHCl3. The mixture was dried under nitrogen and resuspended in 150 μL of 50 mM HEPES pH 8.0 buffer containing 100 mM NaCl and 0.2 mM EDTA. The sample was allowed to sit at rt for 15 min and then was sonicated 3×4 mins on ice with a Branson Sonicator using duty cycle 1. This preparation provides vesicles with a mole fraction of 0.05 for the FRET substrate.
The enzymatic assay was measured using white, opaque 96-well half area plates. Each well contained 60 μL of assay buffer (50 mM HEPES pH 8.0, 50 mM NaCl and 1 mM CaCl2) and 2 ul of a DMSO solution containing compound of interest. Conditioned media obtained from HT-1080 cells, which were transformed by RAGE technology (Athersys) to overexpress endogenous EL, was added and the reaction was allowed to incubate for 20 min at 37° C. with gentle agitation. The reaction was started by the addition of 20 μL of a 1:4 dilution of vesicles. The final total reaction volume was 100 μL. The reaction rates were measured on a Gemini plate reader with an excitation wavelength of 488 nm and an emission of 530 nm. Readings were taken every 20 seconds for 10 min with agitation between each reading. The slope of the linear portion of the readout was used to calculate the rate of the reaction.

Row | Compound | IC50 [µM]
1 | Nc1c(C(=O)N[C@H]2CCc3ccc(-c4ccccc4)cc32)[nH]c(=O)[nH]c1=O [Example 139, (S)-5-amino-2,6-dioxo-N-(6-phenyl-2,3-dihydro-1H-inden-1-yl)-1,2,3,6-tetrahydropyrimidine-4-carboxamide] | 0.028
2 | Nc1c(C(=O)NC2CCN(c3ncnc4[nH]ncc34)C2)[nH]c(=O)[nH]c1=O (stereo not shown) [Example 189, N-(1-(1H-pyrazolo[3,4-d]pyrimidin-4-yl)pyrrolidin-3-yl)-5-amino-2,6-dioxo-1,2,3,6-tetrahydropyrimidine-4-carboxamide] | 0.641

Further lines, results first:

Row | IC50 [µM] | Compound
3 | 0.276 | Nc1c(C(=O)NC2CCN(c3ccc(C(F)(F)F)cn3)C2)[nH]c(=O)[nH]c1=O (stereo not shown) [Example 190, 5-amino-2,6-dioxo-N-(1-(5-(trifluoromethyl)pyridin-2-yl)pyrrolidin-3-yl)-1,2,3,6-tetrahydropyrimidine-4-carboxamide]
4 | 0.018 | Nc1c(C(=O)N[C@@H]2CCCc3ccc(C(F)(F)F)cc32)[nH]c(=O)[nH]c1=O [Example 53, (R)-5-amino-2,6-dioxo-N-(7-(trifluoromethyl)-1,2,3,4-tetrahydronaphthalen-1-yl)-1,2,3,6-tetrahydropyrimidine-4-carboxamide]
5 | 7.16 | Nc1c(C(=O)N[C@H]2CCCc3ccc(C(F)(F)F)cc32)[nH]c(=O)[nH]c1=O [Example 54, (S)-5-amino-2,6-dioxo-N-(7-(trifluoromethyl)-1,2,3,4-tetrahydronaphthalen-1-yl)-1,2,3,6-tetrahydropyrimidine-4-carboxamide]

Same assay, conditions: range observed in the EL assay; read-out: EL IC50 values

Row | Compound | IC50 [µM]
6 | Nc1c(C(=O)N[C@H]2CC[C@@H](c3ccc(-c4cnn(Cc5ccccc5)c4)cc3)C2)[nH]c(=O)[nH]c1=O (stereo in doubt) [Example 179, 5-amino-N-((1S,3R)-3-(4-(1-benzyl-1H-pyrazol-4-yl)phenyl)cyclopentyl)-2,6-dioxo-1,2,3,6-tetrahydropyrimidine-4-carboxamide] | ≤ 10
7 | COCCOc1ccc(C(=O)N[C@H]2CC[C@@H](NC(=O)c3[nH]c(=O)[nH]c(=O)c3N)CC2)cc1 [Example 120, 5-amino-N-(cis-4-(4-(2-methoxyethoxy)benzamido)cyclohexyl)-2,6-dioxo-1,2,3,6-tetrahydropyrimidine-4-carboxamide] | ≤ 10
8 | O=C(N[C@@H]1CC[C@@H](C(=O)N[C@H]2CC[C@@H](c3ccccc3)CC2)C1)c1[nH]c(=O)[nH]c(=O)c1O [Example 297, 5-hydroxy-2,6-dioxo-N-((1R,3R)-3-((1s,4S)-4-phenylcyclohexylcarbamoyl)cyclopentyl)-1,2,3,6-tetrahydropyrimidine-4-carboxamide] | ≤ 10
9 | Nc1c(C(=O)N[C@H]2CCc3ccc(-c4ccccc4)cc32)[nH]c(=O)[nH]c1=O [Example 139, (S)-5-amino-2,6-dioxo-N-(6-phenyl-2,3-dihydro-1H-inden-1-yl)-1,2,3,6-tetrahydropyrimidine-4-carboxamide] | ≤ 10
10 | O=C(N[C@H]1CC[C@@H](c2ccccc2)CC1)c1[nH]c(=O)[nH]c(=O)c1O [Example 238, Hydroxy-2,6-dioxo-N-(cis-4-phenylcyclohexyl)-1,2,3,6-tetrahydropyrimidine-4-carboxamide] | ≤ 10
11 | Cc1nn(C)c(C)c1-c1ccc([C@@H]2CC[C@H](NC(=O)c3[nH]c(=O)[nH]c(=O)c3N)C2)cc1 [Example 159, 5-amino-2,6-dioxo-N-((1S,3R)-3-(4-(1,3,5-trimethyl-1H-pyrazol-4-yl)phenyl)cyclopentyl)-1,2,3,6-tetrahydropyrimidine-4-carboxamide] | ≤ 10
12 | Cn1c(C(=O)N[C@H]2CC[C@@H](c3ccccc3)CC2)c(O)c(=O)[nH]c1=O [Example 241, 5-Hydroxy-3-methyl-2,6-dioxo-N-(cis-4-phenylcyclohexyl)-1,2,3,6-tetrahydropyrimidine-4-carboxamide] | ≤ 10
13 | COc1ccc2c(c1)OC(C)CC2NC(=O)c1[nH]c(=O)[nH]c(=O)c1N (stereo not shown) [Example 17, 5-amino-N-(7-methoxy-2-methylchroman-4-yl)-2,6-dioxo-1,2,3,6-tetrahydropyrimidine-4-carboxamide] | ≤ 10
14 | O=C(NC1CCCc2c(NS(=O)(=O)c3ccccc3)cccc21)c1[nH]c(=O)[nH]c(=O)c1O (stereo not shown) [Example 287, 5-hydroxy-2,6-dioxo-N-(5-(phenylsulfonamido)-1,2,3,4-tetrahydronaphthalen-1-yl)-1,2,3,6-tetrahydropyrimidine-4-carboxamide] | ≤ 10
15 | O=C(N[C@@H]1CC[C@@H](C(=O)Nc2cnn(Cc3ccccc3)c2)C1)c1[nH]c(=O)[nH]c(=O)c1O [Example 295, N-((1R,3R)-3-(1-benzyl-1H-pyrazol-4-ylcarbamoyl)cyclopentyl)-5-hydroxy-2,6-dioxo-1,2,3,6-tetrahydropyrimidine-4-carboxamide] | ≤ 10
16 | Nc1c(C(=O)NC2CCC(c3cnn(Cc4ccccc4)c3)C2)[nH]c(=O)[nH]c1=O (stereo not shown) [Example 102, 5-amino-N-(3-(1-benzyl-1H-pyrazol-4-yl)cyclopentyl)-2,6-dioxo-1,2,3,6-tetrahydropyrimidine-4-carboxamide] | ≤ 10
17 | Nc1c(C(=O)NC2Cc3ccccc3C2Cc2ccccc2)[nH]c(=O)[nH]c1=O (stereo not shown) [Example 8, 5-amino-N-(1-benzyl-2,3-dihydro-1H-inden-2-yl)-2,6-dioxo-1,2,3,6-tetrahydropyrimidine-4-carboxamide] | ≤ 10
18 | Nc1c(C(=O)N[C@@H]2CCC(c3ccc(Cl)c(Cl)c3)c3ccccc32)[nH]c(=O)[nH]c1=O (single isomer, unassigned) [Example 37] | ≤ 10
19 | O=C(NC1CCCc2c(-c3ccccc3)cccc21)c1[nH]c(=O)[nH]c(=O)c1O (stereo not shown) [Example 285, 5-hydroxy-2,6-dioxo-N-(5-phenyl-1,2,3,4-tetrahydronaphthalen-1-yl)-1,2,3,6-tetrahydropyrimidine-4-carboxamide] | ≤ 10
20 | Nc1c(C(=O)NC2CCN(c3ccccc3)C2)[nH]c(=O)[nH]c1=O (stereo not shown) [Example 182, 5-amino-2,6-dioxo-N-(1-phenylpyrrolidin-3-yl)-1,2,3,6-tetrahydropyrimidine-4-carboxamide] | ≤ 10
21 | Nc1c(C(=O)N[C@H]2CC[C@H](C(=O)Nc3ccccc3)C2)[nH]c(=O)[nH]c1=O [Example 129, 5-amino-2,6-dioxo-N-((1S,3S)-3-(phenylcarbamoyl)cyclopentyl)-1,2,3,6-tetrahydropyrimidine-4-carboxamide] | ≤ 10
22 | Nc1c(C(=O)NC2CCN(c3ncnc4[nH]ncc34)C2)[nH]c(=O)[nH]c1=O (stereo not shown) [Example 189, N-(1-(1H-pyrazolo[3,4-d]pyrimidin-4-yl)pyrrolidin-3-yl)-5-amino-2,6-dioxo-1,2,3,6-tetrahydropyrimidine-4-carboxamide] | ≤ 10
23 | Nc1c(C(=O)N[C@@H]2CC[C@@H](C(=O)N[C@H]3CCCc4ccccc43)C2)[nH]c(=O)[nH]c1=O [Example 146, 5-amino-2,6-dioxo-N-((1R,3R)-3-((S)-1,2,3,4-tetrahydronaphthalen-1-ylcarbamoyl)cyclopentyl)-1,2,3,6-tetrahydropyrimidine-4-carboxamide] | ≤ 10

Other lines, results leading:

Row | IC50 [µM] | Compound
24 | ≤ 10 | Nc1c(C(=O)N[C@H]2CCCc3cc(C(F)(F)F)ccc32)[nH]c(=O)[nH]c1=O [Example 52, (S)-5-amino-2,6-dioxo-N-(6-(trifluoromethyl)-1,2,3,4-tetrahydronaphthalen-1-yl)-1,2,3,6-tetrahydropyrimidine-4-carboxamide]
25 | ≤ 10 | COc1ccc2c(c1)CCCC2NC(=O)c1[nH]c(=O)[nH]c(=O)c1N (stereo not shown) [Example 31, 5-amino-N-(6-methoxy-1,2,3,4-tetrahydronaphthalen-1-yl)-2,6-dioxo-1,2,3,6-tetrahydropyrimidine-4-carboxamide]
26 | ≤ 10 | Nc1c(C(=O)NC2CCN(c3ccc(C(F)(F)F)cn3)C2)[nH]c(=O)[nH]c1=O (stereo not shown) [Example 190, 5-amino-2,6-dioxo-N-(1-(5-(trifluoromethyl)pyridin-2-yl)pyrrolidin-3-yl)-1,2,3,6-tetrahydropyrimidine-4-carboxamide]
27 | ≤ 10 | O=C(N[C@H]1CC[C@@H](c2cccc(C(F)(F)F)c2)CC1)c1[nH]c(=O)[nH]c(=O)c1O [Example 257, 5-hydroxy-2,6-dioxo-N-((1s,4s)-4-(3-(trifluoromethyl)phenyl)cyclohexyl)-1,2,3,6-tetrahydropyrimidine-4-carboxamide]
28 | ≤ 10 | Nc1c(C(=O)N[C@@H]2CCCc3ccc(C(F)(F)F)cc32)[nH]c(=O)[nH]c1=O [Example 53, (R)-5-amino-2,6-dioxo-N-(7-(trifluoromethyl)-1,2,3,4-tetrahydronaphthalen-1-yl)-1,2,3,6-tetrahydropyrimidine-4-carboxamide]
29 | ≤ 10 | Nc1c(C(=O)N[C@@H]2CCCc3cc(OCC(F)(F)F)ccc32)[nH]c(=O)[nH]c1=O [Example 33, (R)-5-amino-2,6-dioxo-N-(6-(2,2,2-trifluoroethoxy)-1,2,3,4-tetrahydronaphthalen-1-yl)-1,2,3,6-tetrahydropyrimidine-4-carboxamide]
30 | ≤ 10 | Nc1c(C(=O)N[C@H]2CCCc3ccc(C(F)(F)F)cc32)[nH]c(=O)[nH]c1=O [Example 54, (S)-5-amino-2,6-dioxo-N-(7-(trifluoromethyl)-1,2,3,4-tetrahydronaphthalen-1-yl)-1,2,3,6-tetrahydropyrimidine-4-carboxamide]
31 | ≤ 10 | O=C(N[C@@H]1CCc2ccc(C(F)(F)F)cc21)c1[nH]c(=O)[nH]c(=O)c1O [Example 248, (R)-5-hydroxy-2,6-dioxo-N-(6-(trifluoromethyl)-2,3-dihydro-1H-inden-1-yl)-1,2,3,6-tetrahydropyrimidine-4-carboxamide]
